Data taken from BindingDB's records for doi:10.1021/jm950543x (University of Caen Normandy, 1996).

Assay: Binding affinity for 5-hydroxytryptamine 2C receptor

CN1CCN(c2nc3sccc3n3cccc23)CC1
IC50: 355 nM
